From patent US20180153995A1, “USE OF ANTIMICROBIAL POLYMERS FOR RE-SENSITIZATION OF MICROORGANISMS UPON EMERGENCE OF RESISTANCE TO ANTI-MICROBIAL AGENTS” (Technion Research & Development Foundation Limited, priority 2008, published 2018)
Values joined by “and” are separate entries in the source; they are usually repeats but may differ in a detail not shown here. Equal entries are not always repeated.

Key:
Escherichia coli strains = format: cell-based; conditions: isogenic pair of E. coli K-12 strains
Protocol: (§1) MICs were determined by microdilution susceptibility testing in 96-well plates (by Nunc) using inocula of 10^5 bacteria per ml. Cell populations were evaluated by optical density measurements at 620 nm and were calibrated against a set of standards. Hundred (100) μl of a bacterial suspension were added to 100 μl of culture medium (control) or to 100 μl of culture medium containing various polymer concentrations in 2-fold serial dilutions. Inhibition of proliferation was determined by optical density measurements at 620 nm after an incubation period of 24 hours at 37° C.

MRSA 15903 = test: microbe, parasite or virus in culture; format: cell-based, Staphylococcus aureus; conditions: S. aureus CI-15903; +polymer (⅓ MIC) C12(5-ene)KKNC12KNH2
Protocol: The fractionary inhibitory (FIC) concentration index for combinations of two antimicrobial agents was calculated as follows: FIC index=FICA+FICB=A/MICA+B/MICB where A and B are the MIC values of agent A and agent B in the combination, MICA and MICB are the MICs of agent A and agent B alone, and FICA and FICB are the FICs of agent A and agent B.
The FIC indexes were interpreted as follows: less than 0.5 indicates a clear re-sensitizing effect; from 0.5 to 4 indicates a marginal or null re-sensitizing effect; and over 4 indicates antagonism.
Experimental data for FIG. 4 were obtained as follows.

[1] = system: E. coli K-12 resistant wild type; format: cell-based, Escherichia coli; conditions: E. coli K-12 multi-resistant wild type
[2] = system: E. coli K-12 efflux knockout mutant; format: cell-based, Escherichia coli; conditions: E. coli K-12 strain with decreased levels of efflux pumps
Protocol: as §1

E. coli CI14213 = format: cell-based, Escherichia coli
Protocol: as §1

[3] = system: E. coli N281 (L22 mutation); format: cell-based, Escherichia coli; conditions: E. coli N281; polymer alone
[4] = system: E. coli N282 (L4 mutation); format: cell-based, Escherichia coli; conditions: E. coli N282; polymer alone

CCCCCCCCCCCC(=O)N[C@@H](CCCCN)C(=O)NCCCCCCCC(=O)N[C@@H](CCCCN)C(=O)NCCCCCCCC(=O)N[C@@H](CCCCN)C(=O)NCCCCCCCC(=O)N[C@@H](CCCCN)C(=O)NCCCCCCCC(=O)N[C@@H](CCCCN)C(=O)NCCCCCCCC(=O)N[C@@H](CCCCN)C(=O)NCCCCCCCC(=O)N[C@@H](CCCCN)C(=O)NCCCCCCCC(=O)N[C@@H](CCCCN)C(N)=O [C12K(NC8K)7NH2]
MIC of polymer (Escherichia coli strains): 3.125 µg/mL | MIC (MRSA 15903): 12.5 µg/mL | effect of polymer on antibiotics potency [1]: enhanced antibiotics potency | effect of polymer on antibiotic MICs [2]: not altered significantly | MIC of polymer (E. coli CI14213; CI14213): 3.1 µM | re-sensitizing effect of polymer on oxacillin (E. coli CI14213; E. coli CI14213, polymer well below MIC (up to ⅛ MIC), 24 hours): endowed potency to oxacillin | MIC of polymer [3]: 3.1 µM | MIC of polymer [4]: 1.6 µM and 3.1 µM
